In one assay the test system is normal dogs. Description: Chimeric polypeptide intravenous infusion in normal dogs: blood glucose, plasma insulin, plasma cGMP. Format: in vivo, dog. The conditions noted are these: normal dogs (n=2), intravenous infusion 10 or 100 pmol/kg/minute for 45 minutes; for plasma insulin: versus base line (FIG. 7); for plasma glucose: versus base line (FIG. 8); for plasma cGMP: versus base line (FIG. 9).

Assay [1] deals with T1, GC-A particulate guanylate cyclase receptors (Homo sapiens, UniProt P16066).
T1 construct: expressed in transfected cells; host or cells: HEK293
T1 sequence (P16066 33-1061): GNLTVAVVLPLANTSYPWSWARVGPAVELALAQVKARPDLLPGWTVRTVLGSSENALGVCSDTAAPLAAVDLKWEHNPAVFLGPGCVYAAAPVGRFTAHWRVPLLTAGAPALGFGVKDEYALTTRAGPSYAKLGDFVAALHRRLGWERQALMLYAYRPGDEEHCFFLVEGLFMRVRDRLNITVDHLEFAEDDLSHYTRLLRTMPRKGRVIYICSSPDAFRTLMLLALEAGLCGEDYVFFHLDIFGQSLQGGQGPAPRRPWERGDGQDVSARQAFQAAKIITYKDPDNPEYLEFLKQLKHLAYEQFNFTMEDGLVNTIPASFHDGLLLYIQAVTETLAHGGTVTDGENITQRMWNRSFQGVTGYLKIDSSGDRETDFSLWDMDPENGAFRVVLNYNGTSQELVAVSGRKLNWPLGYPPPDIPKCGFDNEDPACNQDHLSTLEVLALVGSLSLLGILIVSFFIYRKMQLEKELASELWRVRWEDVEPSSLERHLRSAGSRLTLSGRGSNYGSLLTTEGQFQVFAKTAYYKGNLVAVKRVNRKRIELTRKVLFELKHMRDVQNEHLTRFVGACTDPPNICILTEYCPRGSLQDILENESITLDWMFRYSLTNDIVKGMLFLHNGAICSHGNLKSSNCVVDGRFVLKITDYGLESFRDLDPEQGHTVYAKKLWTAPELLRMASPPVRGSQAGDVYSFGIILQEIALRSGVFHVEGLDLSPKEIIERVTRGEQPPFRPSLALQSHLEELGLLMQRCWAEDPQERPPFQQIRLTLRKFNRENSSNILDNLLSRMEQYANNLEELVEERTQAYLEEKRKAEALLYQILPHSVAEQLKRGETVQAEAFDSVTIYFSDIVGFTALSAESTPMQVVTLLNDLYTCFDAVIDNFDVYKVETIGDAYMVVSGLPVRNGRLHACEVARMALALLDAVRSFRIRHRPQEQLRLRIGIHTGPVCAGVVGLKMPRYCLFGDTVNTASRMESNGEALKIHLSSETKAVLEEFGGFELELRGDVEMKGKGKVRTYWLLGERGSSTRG
In words: Cell cGMP assay in HEK293 cells stably transfected with GC-A. Format: cell-based. As to conditions: 10^−10 M, 10^−8M, or 10^−6M polypeptide for 10 minutes (FIGS. 14, 15).

Assay [2] addresses T2, GC-B particulate guanylate cyclase receptors (Homo sapiens, UniProt P20594).
T2 construct: expressed in transfected cells; host or cells: HEK293
T2 sequence (P20594 23-1047): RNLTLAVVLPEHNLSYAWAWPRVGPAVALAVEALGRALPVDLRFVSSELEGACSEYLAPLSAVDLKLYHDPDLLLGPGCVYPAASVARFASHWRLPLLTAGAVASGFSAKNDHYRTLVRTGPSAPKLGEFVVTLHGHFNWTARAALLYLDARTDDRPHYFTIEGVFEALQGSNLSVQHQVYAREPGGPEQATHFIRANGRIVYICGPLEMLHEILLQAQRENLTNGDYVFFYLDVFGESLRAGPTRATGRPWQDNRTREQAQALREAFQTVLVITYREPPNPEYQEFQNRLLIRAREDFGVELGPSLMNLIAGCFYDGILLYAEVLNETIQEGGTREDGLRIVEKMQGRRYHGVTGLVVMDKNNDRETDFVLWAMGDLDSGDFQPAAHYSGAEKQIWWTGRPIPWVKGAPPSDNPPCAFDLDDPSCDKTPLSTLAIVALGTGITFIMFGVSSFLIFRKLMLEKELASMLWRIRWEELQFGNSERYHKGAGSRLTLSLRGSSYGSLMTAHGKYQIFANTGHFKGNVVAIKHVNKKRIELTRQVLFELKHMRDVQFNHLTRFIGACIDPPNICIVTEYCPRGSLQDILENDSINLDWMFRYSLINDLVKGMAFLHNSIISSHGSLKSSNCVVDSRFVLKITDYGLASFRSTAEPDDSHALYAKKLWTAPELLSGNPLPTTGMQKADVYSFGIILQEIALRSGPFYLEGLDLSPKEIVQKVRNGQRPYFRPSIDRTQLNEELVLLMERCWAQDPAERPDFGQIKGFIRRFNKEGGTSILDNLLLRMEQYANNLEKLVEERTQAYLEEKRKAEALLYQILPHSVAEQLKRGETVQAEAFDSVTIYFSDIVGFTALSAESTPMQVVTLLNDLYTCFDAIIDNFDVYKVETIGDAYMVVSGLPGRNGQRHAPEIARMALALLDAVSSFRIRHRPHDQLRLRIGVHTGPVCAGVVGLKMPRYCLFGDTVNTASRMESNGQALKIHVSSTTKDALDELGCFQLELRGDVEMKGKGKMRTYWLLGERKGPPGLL
Description: Cell cGMP assay in HEK293 cells stably transfected with GC-B. Format: cell-based. The conditions noted are these: 10^−10 M, 10^−8M, or 10^−6M polypeptide for 10 minutes (FIGS. 14, 15).

Another assay deals with diabetic rats. In words: Chronic CRRL-094 ISP-NP subcutaneous pump treatment of diabetic rats. In kind it is in vivo, male Wistar rats. The conditions noted are these: ALZET pumps subcutaneously 1 pmol/kg/minute. The source says: Three groups of male Wistar rats were used: (1) normal non-diabetic control rats, (2) diabetic control rats, and (3) diabetic rats treated with CRRL-094 ISP-NP. Two months after induction of diabetes, ALZET pumps (obtained from DURECT Corporation, ALZET Osmotic Pumps, P.O. Box 530, Cupertino, Calif.; Model 1007D) filled with CRRL-094 ISP-NP in saline (dose=1 pmol/kg/minute) or saline as control were serially implanted subcutaneously every 14 days over the course of one month. After four weeks of treatment, blood glucose levels, plasma insulin levels, body weight, plasma and urine cGMP levels, and left ventricular hypertrophy were measured. Blood glucose levels and body weight also were measured after two weeks of treatment.

Assay [3] has as its system normal rats. Description: CRRL-090 ISP intravenous infusion in normal rats: blood glucose and plasma insulin. Format: in vivo, rat. As to conditions: 1 pmol/kg/minute for 210 minutes intravenous infusion. On the procedure: CRRL-090 ISP was synthesized by direct protein synthesis and tested for biological activity in normal rats as follows. Two groups of normal rats were used. The first group included five normal rats, which were administered normal saline. The second group included seven normal rats, which were administered CRRL-090 (1 pmol/kg/minute for 210 minutes). Both administrations were via intravenous infusion.

For assay [4], the system named is diabetic rats (streptozotocin). Description: CRRL-090 ISP chronic subcutaneous pump treatment of streptozotocin diabetic rats. In kind it is in vivo, male Wistar rats. On the procedure: CRRL-090 ISP was synthesized by direct protein synthesis and tested for biological activity in diabetic rats as follows. Three groups of male Wistar rats (six rats per group) were used: normal control group, diabetic control group, and diabetic group treated with CRRL-090 ISP. One dose of streptozotocin was administered intraperitoneally to induce diabetes in the rats of the diabetic control group and diabetic group treated with CRRL-090 ISP. Two months after induction of diabetes, ALZET pumps (obtained from DURECT Corporation, ALZET Osmotic Pumps, P.O. Box 530, Cupertino, Calif.; Model 1007D) configured to release 0.1 μg/kg/minute of CRRL-090 ISP or saline as control were serially implanted subcutaneously every 14 days over the course of one month (2 pumps, one on day 0 and another on day 14). Cardiac function was assessed by echocardiography, neurohormones were measured by radioimmunoassays. Fibrosis was determined by picrosirius red staining.

The subject of assay [5] is normal rats. In words: Chimeric polypeptide infusion in normal rats: blood glucose and plasma insulin. In kind it is in vivo, rat. As to conditions: IV infusion 1 pmol/kg/minute for 210 minutes.
Setting [6] is: after four weeks, compared to diabetic rats treated with saline (FIG. 19).

No end group written: not given here.

Turning to “HGEGT-FTSDSEAFIWLGRRMDRIGLSKGCFGLKLDRIGSMSGLGCKVLRRH (HGEGTFTSDSEAFIWLGRRMDRIGLSKGCFGLKLDRIGSMSGLGCKVLRRH) [CRRL-094 ISP-NP]”, in the assay on normal dogs, the plasma insulin result was “increase in plasma insulin”, the plasma glucose result is reported as “reduction in plasma glucose” and the “plasma cGMP” value is given as “increase”. The “activation of GC-A receptors (cGMP levels)” value in assay [1] is “activated both the GC-A and GC-B receptors”. Further, the “activation of GC-B receptors (cGMP levels)” value in assay [2] is “activated both the GC-A and GC-B receptors”. The plasma insulin entry in the assay with diabetic rats (after four weeks, compared to diabetic rats treated with saline (FIG. 17)) was “increased plasma insulin”. In the assay with diabetic rats (setting [6]), the “plasma cGMP” value is “increased plasma and urine cGMP”; the “urine cGMP” value was “increased plasma and urine cGMP”. For the same substance, the “left ventricular hypertrophy (Left Ventricular Mass, LVMd)” value in the assay with diabetic rats (after four weeks, compared to diabetic rats treated with saline (FIG. 20)) is listed as “reduced left ventricular hypertrophy”. For the same substance, the blood glucose result with diabetic rats (four weeks, compared to diabetic rats treated with saline (FIG. 16)) was “reduced blood glucose”. Further, the body weight result with diabetic rats (four weeks, compared to diabetic rats treated with saline (FIG. 18)) is “reduced body weight”.
Take “HGEGTFTSDSEAFIWLGR-amide (HGEGTFTSDSEAFIWLGR-NH2) [CRRL-090 ISP]”: the blood glucose levels entry in the assay on normal rats [3] (compared to control rats that received saline (FIG. 1)) is on record as “lower blood glucose levels”; in assay [4] (ALZET pumps subcutaneously 0.1 μg/kg/minute for one month starting two months after streptozotocin, compared to diabetic controls (FIG. 3)), “reduced blood glucose levels”. In the assay on normal rats [3] (compared to control rats that received saline (FIG. 2)), the plasma insulin entry is “increased plasma insulin”. Further, the plasma insulin levels entry in assay [4] (ALZET pumps subcutaneously 0.1 μg/kg/minute for one month, three months after streptozotocin, compared to diabetic controls (FIG. 4)) is given as “increased plasma insulin levels”. For the same substance, the “glomerular filtration rate (GFR)” value in assay [4] (ALZET pumps subcutaneously 0.1 μg/kg/minute for one month, three months after streptozotocin, compared to diabetic controls (FIG. 5)) is given as “increased glomerular filtration rate”. Further, the “left ventricular hypertrophy (LV/BW ratio)” value in assay [4] (ALZET pumps subcutaneously 0.1 μg/kg/minute for one month, three months after streptozotocin, compared to diabetic controls (FIG. 6)) was “less left ventricular hypertrophy”.
Take “SPKMVQG-SGCFGRKMDRISSSSGLGCKVLRRHGEGTFTSDSEAFIWLGR [CRRL-092 ISP-NP]”: in the assay on normal dogs, the plasma insulin result is given as “increase in plasma insulin”, the plasma glucose result is reported as “reduction in plasma glucose” and the “plasma cGMP” value is “increase”. Besides, the plasma insulin result with normal rats [5] (compared to placebo control rats (FIGS. 10, 12)) is recorded as “increased plasma insulin”. The blood glucose entry in the assay with normal rats [5] (compared to placebo control rats (FIGS. 11, 13)) is recorded as “lower blood glucose”. In addition, the “activation of GC-A receptors (cGMP levels)” value in assay [1] is given as “activated the GC-A receptors”. In addition, the “activation of GC-B receptors (cGMP levels)” value in assay [2] is on record as “but not the GC-B receptors”.

Values taken from patent US10336803B2, “Insulin secreting polypeptides” (Mayo Foundation for Medical Education and Research, priority 2013, dated 2019).
